The results in this text go back to ChEMBL document CHEMBL4177572, “Recent advances in JAK3 inhibition: Isoform selectivity by covalent cysteine targeting” (Bioorg Med Chem Lett, 2017).

Molecules are shown by their SMILES.

The species named for series [1] is Homo sapiens. Nature of the series: Selectivity ratio of IC50 for JAK2 (unknown origin) to IC50 for JAK3 (unknown origin).
The species entered for series [2] is Homo sapiens. Nature of the series: Selectivity ratio of IC50 for JAK1 (unknown origin) to IC50 for JAK3 (unknown origin).
For series [3], the species on record is Homo sapiens. Kind of series: Selectivity ratio of IC50 for TYK2 (unknown origin) to IC50 for JAK3 (unknown origin).
Series [4] deals with Tyrosine-protein kinase JAK2 (Homo sapiens, UniProt O60674). Kind of series: Time-dependent inhibition of recombinant human N-terminal His-tagged JAK2 (826 to 1132 residues) expressed in sf21 cells using biotinylated peptide substrate after 1 hr by DELFIA.
For series [5], the target named is T1, Tyrosine-protein kinase JAK3 (Homo sapiens) (UniProt P52333).
T1 sequence (whole entry): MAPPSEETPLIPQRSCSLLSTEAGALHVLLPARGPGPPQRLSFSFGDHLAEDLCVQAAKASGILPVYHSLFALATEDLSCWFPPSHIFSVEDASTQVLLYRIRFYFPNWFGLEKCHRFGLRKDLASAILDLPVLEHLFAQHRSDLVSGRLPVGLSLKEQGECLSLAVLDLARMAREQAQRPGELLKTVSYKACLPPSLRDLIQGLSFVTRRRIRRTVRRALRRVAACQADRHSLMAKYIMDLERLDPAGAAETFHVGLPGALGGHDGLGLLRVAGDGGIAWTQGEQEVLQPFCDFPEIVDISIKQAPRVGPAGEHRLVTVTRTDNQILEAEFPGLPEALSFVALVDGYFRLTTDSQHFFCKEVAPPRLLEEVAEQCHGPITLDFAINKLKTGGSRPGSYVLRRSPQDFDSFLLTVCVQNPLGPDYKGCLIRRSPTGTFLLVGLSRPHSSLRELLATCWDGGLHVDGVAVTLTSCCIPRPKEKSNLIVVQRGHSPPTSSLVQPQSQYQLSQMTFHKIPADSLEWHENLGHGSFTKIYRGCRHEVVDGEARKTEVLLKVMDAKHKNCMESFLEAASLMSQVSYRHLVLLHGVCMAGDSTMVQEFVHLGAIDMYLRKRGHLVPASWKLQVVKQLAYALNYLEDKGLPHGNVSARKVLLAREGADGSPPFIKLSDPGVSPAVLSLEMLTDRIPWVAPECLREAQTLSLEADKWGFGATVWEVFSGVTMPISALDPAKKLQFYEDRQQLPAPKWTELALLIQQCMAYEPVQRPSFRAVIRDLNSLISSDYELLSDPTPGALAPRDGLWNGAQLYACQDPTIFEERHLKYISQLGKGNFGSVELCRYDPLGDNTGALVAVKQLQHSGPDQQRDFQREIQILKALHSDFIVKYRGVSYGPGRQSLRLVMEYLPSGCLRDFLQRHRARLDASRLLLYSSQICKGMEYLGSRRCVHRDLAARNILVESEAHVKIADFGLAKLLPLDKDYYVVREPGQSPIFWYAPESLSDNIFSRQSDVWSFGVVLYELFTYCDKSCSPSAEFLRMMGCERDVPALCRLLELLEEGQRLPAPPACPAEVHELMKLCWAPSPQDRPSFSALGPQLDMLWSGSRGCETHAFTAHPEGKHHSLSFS
Nature of the series: Binding affinity to JAK3 (unknown origin) assessed as dissociation half life.

The target in series [6] is Tyrosine-protein kinase JAK1/JAK3 (Mus musculus, UniProt P52332+Q62137). Nature of the series: Inhibition of JAK3/JAK1 in mouse CTLL-2 cells assessed as reduction in IL2-stimulated STAT5 phosphorylation. Type of series: cell-based.
For series [7], the target named is T2, JAK3/JAK1 (Homo sapiens, UniProt P23458+P52333). Nature of the series: Inhibition of JAK1/JAK3 in human PBMC CD3+/CD8+ T cells assessed as reduction in IL7-stimulated STAT5 phosphorylation.
Series [8] is described as follows: Half life in rat. Type of series: ADME, organism-based. As to conditions: in vivo.
The target of series [9] is T2, JAK3/JAK1. Kind of series: Inhibition of JAK1/JAK3 in human whole blood CD3+/CD4+ T cells assessed as reduction in IL7-stimulated STAT5 phosphorylation.

T2 sequence (P23458 whole entry, one chain of several): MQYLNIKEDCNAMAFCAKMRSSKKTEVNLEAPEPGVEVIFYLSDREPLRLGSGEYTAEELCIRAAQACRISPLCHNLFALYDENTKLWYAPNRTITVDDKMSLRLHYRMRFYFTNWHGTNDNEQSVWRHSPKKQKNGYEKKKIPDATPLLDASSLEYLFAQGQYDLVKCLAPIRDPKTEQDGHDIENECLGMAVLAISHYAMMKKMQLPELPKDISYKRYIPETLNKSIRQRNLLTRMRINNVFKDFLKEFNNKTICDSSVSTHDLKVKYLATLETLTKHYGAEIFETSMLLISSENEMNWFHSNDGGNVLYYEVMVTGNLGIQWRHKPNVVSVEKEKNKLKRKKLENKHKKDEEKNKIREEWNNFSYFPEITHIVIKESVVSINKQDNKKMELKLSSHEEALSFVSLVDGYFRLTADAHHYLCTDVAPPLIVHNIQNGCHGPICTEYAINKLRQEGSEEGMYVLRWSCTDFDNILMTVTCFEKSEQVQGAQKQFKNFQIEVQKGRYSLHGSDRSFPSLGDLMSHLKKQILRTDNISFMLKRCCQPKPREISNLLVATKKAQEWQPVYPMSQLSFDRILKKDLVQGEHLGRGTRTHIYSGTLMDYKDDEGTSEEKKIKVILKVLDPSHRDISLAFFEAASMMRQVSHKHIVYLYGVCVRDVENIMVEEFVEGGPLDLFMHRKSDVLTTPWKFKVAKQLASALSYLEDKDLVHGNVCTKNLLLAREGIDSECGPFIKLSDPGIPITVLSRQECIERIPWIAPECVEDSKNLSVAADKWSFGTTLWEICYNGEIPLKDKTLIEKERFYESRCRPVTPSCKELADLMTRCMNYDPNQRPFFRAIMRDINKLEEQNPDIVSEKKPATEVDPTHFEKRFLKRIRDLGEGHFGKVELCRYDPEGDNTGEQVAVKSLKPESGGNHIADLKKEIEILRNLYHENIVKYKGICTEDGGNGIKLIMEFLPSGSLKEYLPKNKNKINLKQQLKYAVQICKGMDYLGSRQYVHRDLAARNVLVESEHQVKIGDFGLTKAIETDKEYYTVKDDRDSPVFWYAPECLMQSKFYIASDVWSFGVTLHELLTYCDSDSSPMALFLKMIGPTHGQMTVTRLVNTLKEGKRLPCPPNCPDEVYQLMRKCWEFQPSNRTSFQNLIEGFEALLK
Sequence of Tyrosine-protein kinase JAK2 (O60674 whole entry, the tested form may be a part): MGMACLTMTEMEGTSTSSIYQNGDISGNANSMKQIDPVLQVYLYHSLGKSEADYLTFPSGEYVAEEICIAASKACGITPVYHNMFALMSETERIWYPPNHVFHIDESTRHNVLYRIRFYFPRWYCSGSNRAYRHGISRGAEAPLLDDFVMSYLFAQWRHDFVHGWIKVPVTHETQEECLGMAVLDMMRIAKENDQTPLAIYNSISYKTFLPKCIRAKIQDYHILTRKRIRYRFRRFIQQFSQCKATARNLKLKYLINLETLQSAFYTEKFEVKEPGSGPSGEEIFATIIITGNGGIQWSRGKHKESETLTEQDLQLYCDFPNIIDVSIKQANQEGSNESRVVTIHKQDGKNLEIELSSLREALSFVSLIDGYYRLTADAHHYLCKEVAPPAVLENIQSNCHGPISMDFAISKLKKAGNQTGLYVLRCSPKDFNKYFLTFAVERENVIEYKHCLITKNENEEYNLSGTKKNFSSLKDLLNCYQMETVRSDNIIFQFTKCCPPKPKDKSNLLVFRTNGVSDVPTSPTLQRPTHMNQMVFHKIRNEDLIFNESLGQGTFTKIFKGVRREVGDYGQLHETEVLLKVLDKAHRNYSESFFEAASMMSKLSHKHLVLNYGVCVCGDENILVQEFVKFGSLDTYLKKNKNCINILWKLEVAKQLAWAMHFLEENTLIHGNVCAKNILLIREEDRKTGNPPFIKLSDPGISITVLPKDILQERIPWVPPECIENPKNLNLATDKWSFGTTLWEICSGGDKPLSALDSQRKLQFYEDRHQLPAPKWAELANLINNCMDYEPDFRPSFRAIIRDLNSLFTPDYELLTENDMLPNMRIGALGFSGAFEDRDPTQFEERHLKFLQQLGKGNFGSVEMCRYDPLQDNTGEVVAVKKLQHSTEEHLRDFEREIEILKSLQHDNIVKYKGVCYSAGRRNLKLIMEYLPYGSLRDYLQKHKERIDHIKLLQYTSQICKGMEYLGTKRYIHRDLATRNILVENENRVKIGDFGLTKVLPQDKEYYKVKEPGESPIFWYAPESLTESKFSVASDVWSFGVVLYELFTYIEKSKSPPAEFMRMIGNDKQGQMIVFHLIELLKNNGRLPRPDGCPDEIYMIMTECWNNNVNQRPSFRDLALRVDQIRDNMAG

On to `c1nc(-c2cn(CC3CO3)nn2)c2cc[nH]c2n1` (centres undefined), for which the results for the Ratio IC50 in the series filed under Homo sapiens [1], in the series filed under Homo sapiens [2] and in the series listed under Homo sapiens [3] were 70, 70 and 160, respectively.
Take `C=CC(=O)Nc1ccc2ncn(-c3cncc(NC(C)(C)C)n3)c2c1`: the IC50 (commonly the concentration that inhibits the measured activity by half) in series [4] is 40 nM.
For `CN(C)C(=O)/C(C#N)=C/c1ccc(Nc2cnc3[nH]cc(C(=O)C(C)(C)C)c3n2)cc1`, the T1/2 in series [5] is 9 h.
In the case of `C=C(C)C(=O)Nc1cccc(-c2ncnc3[nH]cc(C(=O)OCC)c23)c1`, the values for the IC50 (in [6]; on JAK3/JAK1 [7]; at JAK3/JAK1 [9]) were 70 nM, 280 nM and 5.1 µM, respectively. The half-life (in general, how long it takes for the measured level to halve) in [8] is 18 min.
